Source: ChEMBL document CHEMBL5726960, “Inhibiting neurotransmitter reuptake” (2018)

What was measured:
[1] = molecular target: Sodium-dependent noradrenaline transporter (Homo sapiens, UniProt P23975); assay: (§1) On the day of the experiment, the cells were removed from −80° C. or liquid nitrogen and thawed in a room temperature water bath. The cells were dilute to about 1-2E+06 with Freestyle medium. A 1 mL sample (1:2 dilution) was prepared, and the cells were counted. The cells were spun at 1100 rpm for 5 minutes, and the medium was aspirated off. The cells were resuspend in medium at 1.5E+06 cells/mL for about 60,000 cells per well. 40 μL of cells were dispensed per well in the Biocoat plates. The plates were spun at 1100 rpm for 1 minute to improve homogeneity of the cell layer and were incubated at 37° C. for a minimum of 3 hours.; type: cell-based
[2] = molecular target: Sodium-dependent dopamine transporter (Homo sapiens, UniProt Q01959); assay: as §1, with “plates. […]” for “plates.”, “neurotransmitter transporter dye was prepared in AB prior” for “plates were spun at 1100 rpm for 1 minute”, “use.” for “improve homogeneity of the cell layer and were incubated at 37° C. for a minimum of 3 hours.”; type: cell-based
Sodium-dependent dopamine transporter, sequence (Q01959 whole entry): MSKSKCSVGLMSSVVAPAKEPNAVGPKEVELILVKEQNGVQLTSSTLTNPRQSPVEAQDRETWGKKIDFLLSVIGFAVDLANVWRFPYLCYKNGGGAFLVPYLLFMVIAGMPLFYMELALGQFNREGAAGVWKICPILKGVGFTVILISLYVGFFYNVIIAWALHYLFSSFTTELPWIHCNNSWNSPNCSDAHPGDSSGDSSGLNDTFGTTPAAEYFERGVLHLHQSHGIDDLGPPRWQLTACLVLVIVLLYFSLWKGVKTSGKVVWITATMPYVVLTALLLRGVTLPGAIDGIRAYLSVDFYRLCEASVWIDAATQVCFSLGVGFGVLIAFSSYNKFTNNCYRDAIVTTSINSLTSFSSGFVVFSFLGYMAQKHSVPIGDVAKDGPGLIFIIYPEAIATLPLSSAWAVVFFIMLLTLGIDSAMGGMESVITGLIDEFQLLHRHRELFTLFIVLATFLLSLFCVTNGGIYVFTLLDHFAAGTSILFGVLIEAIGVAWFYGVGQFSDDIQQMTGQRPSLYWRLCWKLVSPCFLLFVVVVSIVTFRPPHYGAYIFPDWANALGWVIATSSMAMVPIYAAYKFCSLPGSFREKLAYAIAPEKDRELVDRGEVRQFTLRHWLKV

Sodium-dependent noradrenaline transporter, sequence (P23975 whole entry): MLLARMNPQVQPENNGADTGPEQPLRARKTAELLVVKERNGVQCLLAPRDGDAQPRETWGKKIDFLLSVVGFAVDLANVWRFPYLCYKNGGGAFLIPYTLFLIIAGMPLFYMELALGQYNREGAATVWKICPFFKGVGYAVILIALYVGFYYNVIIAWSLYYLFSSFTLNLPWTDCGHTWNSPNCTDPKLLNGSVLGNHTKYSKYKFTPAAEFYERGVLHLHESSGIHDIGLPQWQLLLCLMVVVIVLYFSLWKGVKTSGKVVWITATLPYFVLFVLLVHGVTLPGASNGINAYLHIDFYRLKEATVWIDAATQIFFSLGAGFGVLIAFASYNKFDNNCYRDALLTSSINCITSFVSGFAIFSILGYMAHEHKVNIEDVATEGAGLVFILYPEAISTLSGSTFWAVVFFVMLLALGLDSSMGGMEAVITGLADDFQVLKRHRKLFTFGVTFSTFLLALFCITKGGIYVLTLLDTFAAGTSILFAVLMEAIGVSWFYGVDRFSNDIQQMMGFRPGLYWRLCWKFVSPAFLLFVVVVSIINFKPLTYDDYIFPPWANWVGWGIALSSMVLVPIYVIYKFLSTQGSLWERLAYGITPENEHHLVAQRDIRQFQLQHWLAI

## CNCC(c1ccc(F)c(Cl)c1)[C@H](O)c1ccccc1 (some centres not stated)
[1]
  Ki: 10.2 nM
[2]
  Ki: 56.6 nM
